Assays:
[1] = system: 70 kDa RHAMM; assay: GPI-anchor identification: Triton X-114 phase separation, PI-PLC, surface biotin labeling; type: cell-based, rat; details: co-treatment with PDGF-BB and mannosamine 10 mM for six hours
Protocol: Differential solubilization and temperature-induced Triton X-114 phase separation was performed as briefly described with 75-100 μg of membrane protein. Cells were grown to confluency and quiesced for 48 hours at which point cells were harvested for membrane protein. Some samples were incubated with PI-PLC for 1 hour at 37° C. before proceeding with Triton X-114 phase separation. PI-PLC was used at 0.375 U/100 μg membrane protein. In separate experiments Mannosamine-HCl was used at 10 mM during 6 hour PDGF-BB treatment. For radiolabel experiments, cells were grown to confluency and quiesced for 48 hours in inositol-free media and then incubated with 4 μCi/mL of ^3H myo-inositol during 6 hour PDGF-BB treatment. For surface biotinylation experiments, media was removed after treatment and replaced with 1 mg/ml biotin in defined media and incubated for 20 minutes at 37° C.

[2] = system: RHAMM:caveolin; assay: Co-immunoprecipitation of RHAMM and caveolin-1 from SMC lysates; type: cell-based, rat; details: peptide 24 hours prior to and during 6 hour PDGF-BB treatment
Protocol: For standard experiment, 100 μg of lysate was used. Samples were pre-cleared with 50 μl of Protein G-agarose for 60 minutes at room temperature while rotating then centrifuged at 13000 g for 5 minutes. The supernatant was transferred to a new tube and incubated with 1 μg of antibody overnight at 4° C. while rotating. The samples were then incubated with 20 μl of Protein G-agarose for 1 hour at 4° C. while rotating. Beads were collected by centrifugation (1 minute at high speed) and then washed three times with lysis buffer (50 mM Tris, pH 8.0/140 mM NaCl/[…]/0.4% Deoxycholate/protease inhibitor cocktail (Boehringer Manheim). The beads were resuspended in at least 40 μl of 2× Novex Sample Buffer and western blot was performed as per NUPAGE protocol (Invitrogen). Primary and secondary antibodies were diluted (R36: 5 μg/ml, Caveolin-1: 0.25 μg/ml) and pre-incubated together over-night before use. For biotin labeling experiments, 6 μl of streptavidin-agarose was added to 25 μg of protein and incubated for 3 hours at 4° C. Beads were collected by centrifugation at 13000 g for 1 minute, washed and resuspended in Novex sample buffer as above.
Therefore, peptides were used to interfere with RHAMM:caveolin to establish direct protein-protein interactions. […]

[3] = system: erk; assay: Immunoblot for total and phosphorylated-erk in PDGF-BB stimulated SMC; type: cell-based, rat; details: peptide pretreatment 24 hours, then 10-minute PDGF-BB
[4] = system: 70 kDa RHAMM; assay: MBCD-mediated release of RHAMM from SMC (caveolar disruption); type: cell-based, rat; details: MBCD 30 minutes, absence of PDGF-BB
Protocol: Caveolar disruption was performed as described below. Cells were grown to confluency in 150 mm dishes and quiesced for 48 hr. After 6 hr PDGF treatment, media was removed and replaced with 20 mm methyl-beta-cyclodextrin in TKM buffer (50 mM Tris-HCl, pH7.4, 25 mM KCl, 5 mM MgCl, 1 mM EDTA). Cells were incubated for 20-30 minutes at 37° C., and the cell-free supernatant was collected after centrifugation at 2000 g for 10 minutes.
Since the GPI anchor links to a hydrophobic lipid tail that inserts into the exoplasmic leaflet of the cell membrane, a liquid ordered arrangement is necessary to maintain its integrity. […] Methyl-beta-cyclodextrin (MBCD), a cell surface-specific cholesterol-extracting agent, can be used to disrupt lipid rafts and caveolae to release endogenous GPI-anchored proteins (Ilangumaran, Madore, McCabe). […] Proteins in the cholesterol-rich annulus are sensitive whereas those in the sphingolipid core are resistant to release by MBCD. SMC cultures were treated with MBCD for 30 minutes, and the cell free supernatant was collected. The supernatant was run by volume on SDS-PAGE and immunoblotted for RHAMM and urokinase-plasmingen activator receptor (uPAR), a defined GPI-anchored protein previously shown to be present in lipid domains. Without MBCD, RHAMM was not released into the supernatant in detectable amounts, irrespective of PDGF-BB treatment (FIG. 11a, lane 2 vs 4). […]

[5] = system: rat aortic SMC; assay: SMC proliferation (MTS assay); type: cell-based
Protocol: In order to determine the effect of PDGF-BB on SMC proliferation, 80% confluent and quiescent cultures of SMC were stimulated for 72 hours with varying doses of PDGF-BB (2-50 ng/ml) and cell number was determined using the MTS assay as described in Methods. A bell-shaped dose response curve was obtained with maximum stimulation of SMC proliferation at 10-25 ng/ml (FIG. 7d, *p<0.01 vs. control).
The effect of HA on SMC proliferation and modulation by PDGF-BB was also examined. SMC that were either maintained in serum-free medium or pre-stimulated with 10 ng/ml PDGF-BB for 24 hours were exposed to HA in serum-free medium at concentrations of 0.1-1000 μg/ml for 48 hours. […] As expected, baseline proliferation was increased in SMC cultures following exposure to 10 ng/ml PDGF-BB for 24 hours (FIG. 7e, *p<0.01 vs. non-stimulated cells). […] In order to determine the contribution of RHAMM to SMC proliferation induced by HA, SMC cultures were treated with R36 throughout the pre-stimulation period with PDGF-BB and subsequently during HA stimulation. Non-immune IgG was used as a negative control and a blocking anti-PDGF-BB antibody was used as a positive inhibitory control. Cell number was determined by MTS assay 48 hours after HA stimulation with and without antibody treatments. As noted before, PDGF-BB pretreatment increased baseline proliferation, FIG. 7e*p<0.01 vs. no PDGF), and HA stimulated a further 25% increase in proliferation, FIG. 7e**p<0.05 vs. PDGF, no HA). […] Anti-PDGF-BB antibody blocked 50% of the PDGF-mediated increase in baseline proliferation, FIG. 7e#p<0.01 anti-PDGF vs. normal IgG).

[6] = system: SMC; details: 0.0 μg/ml of HA; previously demonstrated; cited from earlier work
[7] = system: rat aortic SMC; assay: SMC migration at leading edge of single scratch wounds (timelapse cinemicrography); type: cell-based
Protocol: Primary cultures of rat aortic SMC were established as previously described. […]
The medium of confluent SMC cultures was then changed to DMEM defined medium for 48 hours for quiescence. Migration of SMC at the leading edge of single scratch wounds of confluent cultures was determined using timelapse cinemicrography as previously described and summarized below. […] Media HA concentration was determined as described below. […]
SMC plated in DMEM complete medium were allowed to grow to confluence. After overnight quiescence, a single scratch wound was made in the center of the culture plate using a sterile cell scraper and fresh defined medium was added The motility of cells at the leading edge of these wounds was determined using timelapse cinemicrography (Metamorph, Universal Imaging Corporation, West Chester, Pa.) as previously described. Briefly, cells were monitored using a Nikon TE-300 inverted microscope (Nikon Instruments, Inc., Melville, N.Y.) to which a video camera (Hamamatsu CCD, Inc., Hamamatsu City, Japan) was attached. At least 20 cells per high power field were imaged every hour and the mean distance traveled per frame was measured to obtain mean cell velocities.

[8] = system: rat aortic SMC; assay: HA content of medium of SMC cultures (ELISA like assay); type: cell-based; details: quiescent SMC treated 24 hours, normalized to total protein
Protocol: The medium of confluent SMC cultures was then changed to DMEM defined medium for 48 hours for quiescence. Migration of SMC at the leading edge of single scratch wounds of confluent cultures was determined using timelapse cinemicrography as previously described and summarized below. To observe the effect of HA on this migratory response to wounding, cultures were stimulated with varying concentrations of HA (0.1-100 μg/ml) and studied for 24 hours. For PDGF-BB stimulated HA synthesis experiments, quiescent SMC were stimulated with varying doses of PDGF-BB (2-100 ng/ml) for 24 hours. Media HA concentration was determined as described below. All experiments described below included 10 replicates and each experiment was repeated at least 3 times.
A modified ELISA assay was utilized for determination of HA concentration.
In order to determine the optimal concentration of PDGF-BB required to simulate HA synthesis in SMC, the HA content of medium from quiescent SMC treated for 24 hours with various concentrations of PDGF-BB was determined using an ELISA like assay for HA. Resulting values were normalized to the total protein content of the cultures. […] We therefore used this concentration of PDGF-BB for all subsequent experiments.

With `N[C@@H]1C(O)O[C@H](CO)[C@@H](O)[C@@H]1O` (stereo partly drawn) [mannosamine] the “presence of RHAMM in pellet phase after Triton X-114 fractionation” value [1] was “completely inhibited”.

With “CAV: caveolin scaffolding domain (aa 82-101) peptide fused to antenapedia sequence (RQIKIWFQNRRMKWKKDGIWKASFTTFTVTKYWFYR)” the “co-immunoprecipitation of RHAMM and caveolin-1” value [2] was “decreased co-immunoprecipitation” and the “PDGF-BB-induced erk phosphorylation after peptide pretreatment” value [3] was “inhibited”.

With Methyl-beta-cyclodextrin [MBCD] the “release of 70 kDa RHAMM into supernatant by MBCD” value [4] was “released into supernatant”.

With “RM: peptide of RHAMM caveolin-binding motif (KWRLL YEEL YDKTKPFQ) fused to antenapedia sequence RQIKIWFQNRRMKWKK (YDKTKPFQRQIKIWFQNRRMKWKK)” the “co-immunoprecipitation of RHAMM and caveolin-1” value [2] was “decreased co-immunoprecipitation” and the “PDGF-BB-induced erk phosphorylation after peptide pretreatment” value [3] was “inhibited”.

In the case of hyaluronan [HA], the “proliferative response of SMC to HA without PDGF-BB pre-stimulation” value ([5]; HA 0.1-1000 μg/ml, 48 hours, serum-free medium) is reported as “no proliferative response”, the “HA concentration of maximal proliferative response” value ([5]; after pre-stimulation with 10 ng/ml PDGF-BB) is reported as 100 µg/mL and the “further increase in SMC proliferation in response to HA” value ([5]; after pre-stimulation with 10 ng/ml PDGF-BB for 24 hours, HA 48 hours) is reported as 25%. For the same molecule, the “random migration of sub-confluent SMC cultures” value [6] was “increases their random migration” and the “effect of exogenous HA on SMC migration after single scratch wounding” value ([7]; 0.001 μg/ml HA added to wounded cultures) was “further stimulation of SMC that continued up to 18 hours”.

B1: PDGF-BB: Platelet-Derived Growth Factor BB dimer, obtained from R & D Systems (protein, UniProt P01127 82-190, looked up)
Platelet-derived growth …: SLGSLTIAEPAMIAECKTRTEVFEISRRLIDRTNANFLVWPPCVEVQRCSGCCNNRNVQCRPTQVQLRPVQVRKIEIVRKKPIFKKATVTLEDHLACKCETVAAARPVT
modifications: homodimer BB
notes: Platelet-Derived Growth Factor BB dimer, obtained from R & D Systems
In the case of B1, the “PDGF-BB dose of maximal HA synthesis” value [8] is reported as 10 ng/mL, the “baseline SMC proliferation” value ([5]; 10 ng/ml PDGF-BB for 24 hours) is reported as “increased” and the “PDGF-BB dose of maximum stimulation of SMC proliferation” value ([5]; 72 hours, doses 2-50 ng/ml, bell-shaped curve) is reported as 10 to 25 ng/mL. The “increase of mean cell velocity of SMC at leading edge of wounds” value ([7]; PDGF-BB 10 ng/ml vs non-stimulated control) was “two-fold”.

— US20070179085A1, “MODULATION OF RHAMM-CAVEOLIN/LIPID RAFT INTERACTIONS TO AFFECT DEVELOPMENT, RESPONSES TO TISSUE INJURY, ANGIOGENESIS, TUMORIGENESIS, METASTASIS AND GROWTH FACTOR/CYTOKINE RESPONSES” (priority 2005, published 2007)
